{
  "source": "patent US20260272907A1",
  "about": "“Therapeutic Tyrosine Kinase Inhibitors for Multiple Sclerosis” (Principia Biopharma Inc., priority 2022, published 2026)",
  "origin": "cited, not measured here",
  "tested_on": "RMS patients",
  "conditions": "from Week 12; cited from earlier work",
  "data": [
    {"smiles": "C=CC(=O)N1CCC(CNc2ncnc(N)c2-c2ccc(Oc3ccccc3)cc2)CC1", "note": "[evobrutinib]", "values": [
      {"measurement": "Reduction of new Gd-enhancing T1 lesions", "result": "meaningful reduction"}
    ]}
  ]
}
